Values quoted from earlier work as cited in patent publication US5296468A, “GnRH analogs” (The Salk Institute for Biological Studies, priority 1993, dated 1994).

Assays:
[1] = target: T1, the receptor (Homo sapiens, UniProt P30968); conditions: background, U.S. Pat. No. 4,072,668
T1 sequence (P30968 1-328): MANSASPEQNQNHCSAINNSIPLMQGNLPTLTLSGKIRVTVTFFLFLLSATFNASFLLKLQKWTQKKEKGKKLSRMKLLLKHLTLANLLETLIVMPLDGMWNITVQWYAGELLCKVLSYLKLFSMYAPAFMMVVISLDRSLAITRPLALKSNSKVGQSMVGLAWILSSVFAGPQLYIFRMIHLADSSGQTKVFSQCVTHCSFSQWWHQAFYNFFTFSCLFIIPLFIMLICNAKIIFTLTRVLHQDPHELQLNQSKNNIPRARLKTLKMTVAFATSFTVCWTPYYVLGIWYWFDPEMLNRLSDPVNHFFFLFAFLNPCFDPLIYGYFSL

[2] = background, U.S. Pat. No. 4,072,668

pGlu-His-Trp-Ser-Tyr-D-Ala-Leu-Arg-Pro-Gly-NH2 [[D-Ala^6]-GnRH]
binding strength to the receptor compared with the native hormone [1]: greater binding strength to the receptor | biological potency compared with the native hormone [2]: greater biological potency than the native hormone
